Data published in article PMC12040169 (PLOS Biology, 2025).

assay: in vitro; details: human, hela cells, % viability

Question: For `COc1ccc(C(CNC(=O)C2C(C(=O)O)C2(C)C)N(C)C)cc1` (stereo not shown) [CBK286700], which viability at 28.5 h, 10 µM is on record?
Answer: 110%

Question: For `COc1cccc(N2CCN(C(C(=O)O)c3cn(C)c4cc(C(=O)O)ccc34)CC2)c1` (stereo not shown) [CBK286701], which viability at 28.5 h, 10 µM is on record?
Answer: 114%

Question: Which viability at 28.5 h, 10 µM does the source give for `O=C(O)C[C@H](CNC(=O)COc1ccc2ccc(=O)oc2c1)c1ccc(Cl)cc1` [CBK286702] here?
Answer: 113%

Question: With `COc1ccc(-c2nc3c(c(SCC(=O)O)n2)COC(C)(C)C3)cc1` [CBK286704] as the molecule, how does the viability at 28.5 h, 10 µM read?
Answer: 107%

Question: For `O=C(O)C(Cc1c[nH]cn1)N1C(=O)C2C3C=CC(C3)C2C1=O` (stereo not shown) [CBK286705], which viability at 28.5 h, 10 µM is on record?
Answer: 88%

Question: For `Cc1ccc(S(=O)(=O)NC[C@H]2CC[C@H](C(=O)O)CC2)cc1` [CBK286706], which viability at 28.5 h, 10 µM is on record?
Answer: 96.1%

Question: With `O=C(O)CCCCCNc1ccc(C(F)(F)F)cc1[N+](=O)[O-]` [CBK286707] as the molecule, how does the viability at 28.5 h, 10 µM read?
Answer: 83.3%

Question: Which viability at 28.5 h, 10 µM does the source give for `O=C(N[C@@H](Cc1ccccc1)C(=O)O)c1cccc2c1-c1ccccc1C2=O` [CBK286710] here?
Answer: 92.1%

Question: With `CCn1cc(C(=O)N2CCC(C(=O)O)CC2)c(=O)c2cc3c(cc21)OCO3` [CBK286713] as the molecule, how does the viability at 28.5 h, 10 µM read?
Answer: 111%

Question: With `O=C(O)CNC(=O)[C@H]1CC[C@H](Cn2cnc3ccccc3c2=O)CC1` [CBK286714] as the molecule, how does the viability at 28.5 h, 10 µM read?
Answer: 97%

Question: With `O=C(O)C[C@]1(C(=O)NC2CCCCCC2)CC(c2ccc(Cl)cc2)=NO1` [CBK286716] as the molecule, how does the viability at 28.5 h, 10 µM read?
Answer: 92.3%

Question: Which viability at 28.5 h, 10 µM does the source give for `CCN1CCN(C(=O)c2nccnc2C(=O)O)CC1` [CBK286718] here?
Answer: 88.8%

Question: Which viability at 28.5 h, 10 µM does the source give for `CC(C)(C)OC(=O)N[C@@H](Cc1ccccc1)C(=O)NC[C@H]1CC[C@H](C(=O)O)CC1` [CBK286719] here?
Answer: 81.9%

Question: For `CC(C)CCNC(=O)CC(=O)Nc1ccc(C(=O)O)cc1` [CBK286721], which viability at 28.5 h, 10 µM is on record?
Answer: 85.5%

Question: Which viability at 28.5 h, 10 µM does the source give for `CC(C)[C@H](NC(=O)C1CC(=O)N(c2ccc(F)cc2)C1)C(=O)N1CCCC1C(=O)O` (stereo partly shown) [CBK286723] here?
Answer: 95%

Question: With `O=C(O)c1ccc(CSc2nnnn2-c2ccccc2)cc1` [CBK286726] as the molecule, how does the viability at 28.5 h, 10 µM read?
Answer: 85.1%

Question: For `COc1ccc2c(C)c(CCC(=O)N(C)CC(=O)O)c(=O)oc2c1` [CBK286731], which viability at 28.5 h, 10 µM is on record?
Answer: 87%

Question: Which viability at 28.5 h, 10 µM does the source give for `C[C@H](NC(=O)C1CC(=O)N(c2ccc(F)cc2)C1)C(=O)N1CCC(C(=O)O)CC1` (stereo partly shown) [CBK286733] here?
Answer: 79.7%

Question: For `Cc1nn(-c2ccc(C(=O)O)cc2)c2c1C(=O)CC(C)(C)C2` [CBK286734], which viability at 28.5 h, 10 µM is on record?
Answer: 86.4%

Question: With `O=C(O)[C@@H]1CC(O)CN1C(=O)c1ccc2noc(-c3ccccc3)c2c1` (stereo partly shown) [CBK286736] as the molecule, how does the viability at 28.5 h, 10 µM read?
Answer: 86.1%

Question: Which viability at 28.5 h, 10 µM does the source give for `CC1(C(=O)O)COC(c2ccc([N+](=O)[O-])cc2)OC1` (stereo not shown) [CBK286737] here?
Answer: 87.1%

Question: Which viability at 28.5 h, 10 µM does the source give for `Cc1ccc(N2CCCn3c2nc2c3c(=O)n(CC(=O)O)c(=O)n2C)cc1` [CBK286740] here?
Answer: 90.5%

Question: Which viability at 28.5 h, 10 µM does the source give for `C[C@H](NC(=O)OC(C)(C)C)C(=O)NC[C@H]1CC[C@H](C(=O)O)CC1` [CBK286741] here?
Answer: 98.7%

Question: Which viability at 28.5 h, 10 µM does the source give for `O=C(O)c1cccc(OCc2nnnn2-c2ccc(Br)cc2)c1` [CBK286744] here?
Answer: 82.7%

Question: For `O=C(O)C1CCC(CNC(=O)C2Cc3ccccc3CN2)CC1` (stereo not shown) [CBK286745], which viability at 28.5 h, 10 µM is on record?
Answer: 84.6%

Question: Which viability at 28.5 h, 10 µM does the source give for `O=C(CCN1C(=O)[C@@H]2Cc3ccccc3CN2C1=O)N[C@H](C(=O)O)c1ccccc1` [CBK286751] here?
Answer: 88.7%

Question: With `O=C(O)CCCC(=O)N1N=C(c2ccccc2)CC1c1ccc2nccnc2c1` (stereo not shown) [CBK286752] as the molecule, how does the viability at 28.5 h, 10 µM read?
Answer: 89.4%

Question: With `O=C(O)C1CCCN(C(=O)COc2cc3oc(=O)cc(-c4ccccc4)c3cc2Cl)C1` (stereo not shown) [CBK286753] as the molecule, how does the viability at 28.5 h, 10 µM read?
Answer: 90.9%

Question: Which viability at 28.5 h, 10 µM does the source give for `CC(=O)NC(CSc1cc(C)nc2ccccc12)C(=O)O` (stereo not shown) [CBK286755] here?
Answer: 87.4%

Question: For `O=C(Cc1ccccc1C(=O)O)Nc1ccc(-n2cncn2)c(Cl)c1` [CBK286756], which viability at 28.5 h, 10 µM is on record?
Answer: 85.7%

Question: Which viability at 28.5 h, 10 µM does the source give for `CCCC(CCC(=O)Nc1ccccc1Cl)C(=O)O` (stereo not shown) [CBK286757] here?
Answer: 120%

Question: With `CC(=O)N1CCC2(CC1)NC(=O)N(c1ccc(C(=O)O)cc1)N2` [CBK286758] as the molecule, how does the viability at 28.5 h, 10 µM read?
Answer: 103%

Question: For `CC(C)C[C@@H](C(=O)N1CCC(C(=O)O)CC1)n1c(=O)[nH]c2ccccc2c1=O` [CBK286762], which viability at 28.5 h, 10 µM is on record?
Answer: 88.5%

Question: For `CC(=O)C1=C(O)C(=O)N(CCC(=O)O)C1c1ccccc1` (stereo not shown) [CBK286763], which viability at 28.5 h, 10 µM is on record?
Answer: 84.3%
